# According to patent US3954975A, “Salts of ACTH-peptides and processes for their manufacture” (Ciba-Geigy Corporation, priority 1972, dated 1976):
# Structures can show the parent of a compound that is named as a salt. Square brackets hold non-standard residues; d marks the D form. Peptide text beside a SMILES is read from it.
# Test: solubility of the fatty acid salt in water
# Type: physicochemical
# Conditions: for solubility in water: 24°C
# Method: 200 mg of D-Ser^1 -Lys^17,18 -β^1-18 -corticotropin-Lys^18 -amide hexaacetate hydrate are dissolved in 24 ml of ethanol and 1.6 ml of water, and thereafter a solution of 88 mg of lauric acid in 10 ml of ethanol is added. The mixture is evaporated to dryness, the residue is dried overnight in vacuo over sodium hydroxide and is then dissolved in 25 ml of tert. butanol and 5 ml of water whilst warming, the solution is filtered and the filtrate is lyophilized. The residue is again dried in vacuo over sodium hydroxide. 265 mg of lauric acid salt are obtained as a light powder. The solubility of the product in water at 24°C is less than 0.1% (acetic acid salt > 10%).
Molecule,solubility in water (in words),also measured
"CSCC[C@H](NC(=O)[C@H](CO)NC(=O)[C@H](Cc1ccc(O)cc1)NC(=O)[C@H](N)CO)C(=O)N[C@@H](CCC(=O)O)C(=O)N[C@@H](Cc1c[nH]cn1)C(=O)N[C@@H](Cc1ccccc1)C(=O)N[C@@H](CCCNC(=N)N)C(=O)N[C@@H](Cc1c[nH]c2ccccc12)C(=O)NCC(=O)N[C@@H](CCCCN)C(=O)N1CCC[C@H]1C(=O)N[C@H](C(=O)NCC(=O)N[C@@H](CCCCN)C(=O)N[C@@H](CCCCN)C(=O)N[C@@H](CCCCN)C(=O)N[C@@H](CCCCN)C(N)=O)C(C)C [Example 1, D-Ser^1 -Lys^17,18 -β^1-18-corticotropin-Lys^18-amide]",,solubility in water: less than 0.1%
"CSCC[C@H](NC(=O)[C@H](CO)NC(=O)[C@H](Cc1ccc(O)cc1)NC(=O)[C@H](N)CO)C(=O)N[C@@H](CCC(=O)O)C(=O)N[C@@H](Cc1c[nH]cn1)C(=O)N[C@@H](Cc1ccccc1)C(=O)N[C@@H](CCCNC(=N)N)C(=O)N[C@@H](Cc1c[nH]c2ccccc12)C(=O)NCC(=O)N[C@@H](CCCCN)C(=O)N1CCC[C@H]1C(=O)N[C@H](C(=O)NCC(=O)N[C@@H](CCCCN)C(=O)N[C@@H](CCCCN)C(=O)N[C@@H](CCCCN)C(=O)N[C@@H](CCCCN)C(N)=O)C(C)C [Example 4, D-Ser^1 -Lys^17,18 -β^1-18-corticotropin-Lys^18-amide]",water-insoluble,
"CSCC[C@H](NC(=O)[C@H](CO)NC(=O)[C@H](Cc1ccc(O)cc1)NC(=O)[C@H](N)CO)C(=O)N[C@@H](CCC(=O)O)C(=O)N[C@@H](Cc1c[nH]cn1)C(=O)N[C@@H](Cc1ccccc1)C(=O)N[C@@H](CCCNC(=N)N)C(=O)N[C@@H](Cc1c[nH]c2ccccc12)C(=O)NCC(=O)N[C@@H](CCCCN)C(=O)N1CCC[C@H]1C(=O)N[C@H](C(=O)NCC(=O)N[C@@H](CCCCN)C(=O)N[C@@H](CCCCN)C(=O)N[C@@H](CCCCN)C(=O)N[C@@H](CCCCN)C(=O)N1CCC[C@H]1C(=O)O)C(C)C [Example 6, D-Ser^1 -Lys^17,18 -β^1-19-corticotropin]",sparingly soluble in water,
"CSCC[C@H](NC(=O)CNC(=O)[C@H](Cc1ccc(O)cc1)NC(=O)[C@H](N)CO)C(=O)N[C@@H](CCC(=O)O)C(=O)N[C@@H](Cc1c[nH]cn1)C(=O)N[C@@H](Cc1ccccc1)C(=O)N[C@@H](CCCNC(=N)N)C(=O)N[C@@H](Cc1c[nH]c2ccccc12)C(=O)NCC(=O)N[C@@H](CCCCN)C(=O)N1CCC[C@H]1C(=O)N[C@H](C(=O)NCC(=O)N[C@@H](CCCCN)C(=O)N[C@@H](CCCCN)C(=O)N[C@@H](CCCCN)C(=O)N[C@@H](CCCCN)C(N)=O)C(C)C [Example 8, D-Ser^1 -Gly^3 -Lys^17,18 -β^1-18-corticotropin-Lys^18-amide] (H-[dS]YGMEHFRWGKPVGKKKK-NH2)",practically insoluble in water,
"CSCC[C@H](NC(=O)[C@H](CO)NC(=O)[C@H](Cc1ccc(O)cc1)NC(=O)[C@H](N)CO)C(=O)N[C@@H](CCC(=O)O)C(=O)N[C@@H](Cc1c[nH]cn1)C(=O)N[C@@H](Cc1ccccc1)C(=O)N[C@@H](CCCNC(=N)N)C(=O)N[C@@H](Cc1c[nH]c2ccccc12)C(=O)NCC(=O)N[C@@H](CCCCN)C(=O)N1CCC[C@H]1C(=O)N[C@H](C(=O)NCC(=O)N[C@@H](CCCCN)C(=O)N[C@@H](CCCCN)C(=O)N[C@@H](CCCCN)C(=O)N[C@@H](CCCCN)C(N)=O)C(C)C [acetic acid salt, D-Ser^1 -Lys^17,18 -β^1-18-corticotropin-Lys^18-amide hexaacetate hydrate, reference compound]",,solubility in water (hydrate): > 10%
"D-Ser^1 -Gly^3 -Lys^17,18 -corticotropin-Lys^18 -amide [Example 9]",cannot be dissolved in water,
